Test results from patent US9409952B2, “Peptide-compound cyclization method” (Chugai Seiyaku Kabushiki Kaisha, priority 2011, dated 2016).
Where two headings read alike, the source gives them in different places. Starred links: 1 amine or outer side, 2 acyl side, 3 side chain; linkers in the order of their positions; H or OH if unused. Positions of bridges follow the written chain, without caps; N, C: chain ends. Non-standard residues stand in square brackets, D forms with d. Residues, ends and D or L forms follow the SMILES beside them. *: point of attachment. NMePhe(3-Cl) = CN[C@@H](Cc1cccc(Cl)c1)C(=O)O; NMeF = CN[C@@H](Cc1ccccc1)C(=O)O; NMeGABA = CN(CCCC(=O)[*:2])[*:1]; NMeI = CC[C@H](C)[C@H](NC)C(=O)O; NMeβAla = CN(CCC(=O)[*:2])[*:1]; NMeL = CN[C@@H](CC(C)C)C(=O)O; NMeV = CN[C@H](C(=O)O)C(C)C; NMeA = CN[C@@H](C)C(=O)O; Piperidide = C1CCN(*)CC1; dNMeA = CN[C@H](C)C(=O)O; β3hA = C[C@H](N)CC(=O)O; Sar = CNCC(=O)O; tBu = CC(C)(C)*

Legend:
[1] = Metabolic stability in human hepatic microsome; type: in vitro ADME; details: microsomes
[2] = PAMPA (parallel artificial membrane permeability assay); type: in vitro ADME; details: for Papp at 18 hours, 50 µM: PAMPA
Outline: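 Artificial membrane was 10% (w/v) egg lecithin plus 0.5% (w/v) cholesterol in dodecane on a PVDF filter. A 10 mM DMSO stock was added at 0.5% (v/v) to donor buffer (50 mM MOPSO, pH 6.5, 5.0% glycocholic acid). After 18 h at 37 °C, LC/MS or LC/UV gave donor and acceptor levels for Pe.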

[3] = pH 7.4, human hepatic microsome, NADPH(+), read-out: CL NADPH(+)
[4] = membrane permeation rate (Pe), 50 mM MOPSO buffer pH 6.5 with 5.0% glycocholic acid, 37° C., 18 hours, read-out: iPAMPA Pe

Row | SMILES | microsomal CLint at 1 uM [1, 3] [µL/min/mg] | Papp at 18 hours, 50 µM [2, 4] [×10⁻⁶ cm/s] | iPAMPA Pe ([2]; membrane permeation rate (Pe), 50 mM MOPSO buffer pH 6.5 with 5.0% glycocholic acid, 37° C., 18 hours) | microsomal CLint at 1 uM ([1]; human, pH 7.4, CL NADPH(+)) [µL/min/mg] | Papp at 18 hours, 50 µM ([2]; pH 6.5) [×10⁻⁶ cm/s]
1 | CC(C)C[C@H]1C(=O)N[C@@H](COC(C)(C)C)C(=O)N(C)[C@@H](Cc2ccccc2)C(=O)N(C)[C@@H](CC(C)C)C(=O)N[C@H](C(=O)N2CCCCC2)CC(=O)N(C)CCC(=O)N[C@@H]([C@@H](C)O)C(=O)N1C [DP-746] ([NMeβAla]T[NMeL]S(tBu)[NMeF][NMeL]D-Piperidide; lactam N-7) | 318 | 47 | – | – | –
2 | CC[C@H](C)[C@@H]1NC(=O)[C@H](CC(C)C)N(C)C(=O)[C@H](C)N(C)C(=O)[C@H]([C@@H](C)O)NC(=O)[C@H](C)N(C)C(=O)[C@H](C(C)C)N(C)C(=O)[C@H](Cc2ccccc2)NC(=O)CCN(C)C(=O)C[C@@H](C(=O)N(C)[C@@H](Cc2ccccc2)C(=O)N[C@@H](C)C(=O)N2CCCCC2)NC(=O)[C@H](C)N(C)C1=O [DP-490] ([NMeβAla]F[NMeV][NMeA]T[NMeA][NMeL]I[NMeA]D[NMeF]A-Piperidide; lactam N-10) | 27 | 11 | – | – | –
3 | CC[C@H](C)[C@@H]1NC(=O)[C@H](Cc2ccccc2)NC(=O)[C@H]([C@@H](C)O)NC(=O)CCN(C)C(=O)C[C@@H](C(=O)N2CCCCC2)NC(=O)[C@H](Cc2ccccc2)NC(=O)[C@H](Cc2ccccc2)NC(=O)CNC(=O)[C@H](CC(C)C)N(C)C(=O)[C@H](CC(C)C)NC1=O [DP-423] ([NMeβAla]TFIL[NMeL]GFFD-Piperidide; lactam N-10) | 110 | 15 | – | – | –
4 | CC(C)C[C@@H]1NC(=O)[C@H](Cc2ccccc2)N(C)C(=O)CN(C)C(=O)[C@H]([C@@H](C)O)NC(=O)[C@H](CC(C)C)N(C)C(=O)[C@H](C)NC(=O)C[C@@H](C(=O)N(C)[C@@H](CC(C)C)C(=O)N[C@H](C(=O)N(C)[C@@H](C)C(=O)N[C@@H](C)C(=O)N2CCCCC2)C(C)C)NC1=O [DP-566] (A[NMeL]T[Sar][NMeF]LD[NMeL]V[NMeA]A-Piperidide; lactam N-7) | 38 | 11 | – | – | –
5 | CC[C@H](C)[C@H](NC(=O)[C@H](CC(C)C)NC(=O)[C@H](CC(C)C)N(C)C(=O)[C@H](Cc1cccc(Cl)c1)N(C)C(=O)[C@@H](NC(=O)[C@@H]1CC(=O)N[C@@H](Cc2ccccc2)C(=O)N[C@@H]([C@@H](C)O)C(=O)N[C@@H](CC(C)C)C(=O)N(C)[C@@H](CC(C)C)C(=O)N(C)[C@@H](C)C(=O)N(C)[C@@H](CC(C)C)C(=O)N1)[C@@H](C)CC)C(=O)N1CCCCC1 [DP-914] (FTL[NMeL][NMeA][NMeL]DI[NMePhe(3-Cl)][NMeL]LI-Piperidide; lactam N-7) | 29 | – | 1.0E−07 | – | –
6 | CC(C)C[C@H]1C(=O)N[C@@H](COC(C)(C)C)C(=O)N[C@@H](C)CC(=O)N[C@H](C)C(=O)N(C)[C@@H](C)C(=O)N(C)[C@@H](Cc2ccccc2)C(=O)N(C)[C@@H](C)C(=O)N[C@@H]([C@@H](C)O)C(=O)N(C)[C@@H](C)C(=O)N1C [DP-786] (cyclo([NMeA][NMeF][NMeA]T[NMeA][NMeL]S(tBu)[β3hA][dA])) | 14 | 5.9 | – | – | –
7 | CC[C@H](C)[C@@H]1NC(=O)[C@H](CC(C)C)N(C)C(=O)CN(C)C(=O)[C@H]([C@@H](C)O)NC(=O)[C@H](C)N(C)C(=O)C[C@@H](C(=O)N(C)[C@@H](C)C(=O)N2CCC[C@H]2C(=O)N[C@@H](C)C(=O)N2CCCCC2)NC(=O)[C@H](CC(C)C)N(C)C(=O)[C@H](Cc2ccccc2)N(C)C(=O)[C@H](CC(C)C)N(C)C1=O [DP-661] ([NMeA]T[Sar][NMeL]I[NMeL][NMeF][NMeL]D[NMeA]PA-Piperidide; lactam N-9) | 17 | 25 | – | – | –
8 | CC[C@H](C)[C@H]1C(=O)N(C)[C@@H](C(C)C)C(=O)N(C)[C@@H](CC(C)C)C(=O)N[C@@H]([C@@H](C)O)C(=O)N[C@H](C(=O)N2CCCCC2)CC(=O)N(C)CCCC(=O)N[C@@H](Cc2ccccc2)C(=O)N(C)[C@@H](CC(C)C)C(=O)N(C)[C@@H](C)C(=O)N(C)[C@@H](Cc2ccccc2)C(=O)N[C@@H](C)C(=O)N1C [DP-250] ([NMeGABA]F[NMeL][NMeA][NMeF]A[NMeI][NMeV][NMeL]TD-Piperidide; lactam N-11) | 42 | 29 | – | – | –
9 | CC[C@H](C)[C@@H]1NC(=O)[C@H](CC(C)C)N(C)C(=O)[C@H](C)N(C)C(=O)[C@@H](C)NC(=O)C[C@@H](C(=O)N2CCCCC2)NC(=O)[C@H](CC(C)C)N(C)C(=O)[C@H](C)N(C)C(=O)[C@H]([C@@H](C)O)NC(=O)[C@H](Cc2ccccc2)N(C)C(=O)[C@H](Cc2ccccc2)N(C)C1=O [DP-136] ([dA][NMeA][NMeL]I[NMeF][NMeF]T[NMeA][NMeL]D-Piperidide; lactam N-10) | 147 | 35 | – | – | –
10 | CC[C@H](C)[C@H]1C(=O)N[C@H](C(=O)N2CCCCC2)CC(=O)N[C@H](C)C(=O)N(C)[C@@H](Cc2ccccc2)C(=O)N(C)[C@@H](CC(C)C)C(=O)N[C@@H]([C@@H](C)O)C(=O)N(C)CC(=O)N(C)[C@@H](CC(C)C)C(=O)N[C@@H](COC(C)(C)C)C(=O)N1C [DP-77] ([dA][NMeF][NMeL]T[Sar][NMeL]S(tBu)[NMeI]D-Piperidide; lactam N-9) | – | – | – | 33 | 21
11 | CC(C)C[C@H]1NC(=O)C[C@@H](C(=O)N2CCCCC2)NC(=O)[C@H](CC(C)C)N(C)C(=O)[C@H](Cc2ccccc2)NC(=O)[C@H](CC(C)C)N(C)C(=O)[C@H](C)N(C)C(=O)[C@H](Cc2c[nH]cn2)NC(=O)[C@H](CC(C)C)N(C)C(=O)[C@H](Cc2ccccc2)N(C)C1=O [DP-904] ([dL][NMeF][NMeL]H[NMeA][NMeL]F[NMeL]D-Piperidide; lactam N-9) | 89 | 7.8 | – | – | –
12 | CC[C@H](C)[C@H]1C(=O)N[C@H](C(=O)N2CCCCC2)CC(=O)N[C@H](C(C)C)C(=O)N[C@@H]([C@@H](C)O)C(=O)N(C)CC(=O)N[C@@H](CC(C)C)C(=O)N2CCC[C@H]2C(=O)N(C)[C@@H](C(C)C)C(=O)N[C@@H](Cc2ccccc2)C(=O)N(C)[C@@H](Cc2ccccc2)C(=O)N(C)[C@@H](CC(C)C)C(=O)N[C@@H](C)C(=O)N1C [DP-56] ([dV]T[Sar]LP[NMeV]F[NMeF][NMeL]A[NMeI]D-Piperidide; lactam N-12) | – | – | – | 43 | 30
13 | CC(C)C[C@H]1C(=O)N(C)[C@@H](CC(C)C)C(=O)N[C@@H](C)CC(=O)N(C)CCCC(=O)N(C)[C@@H](Cc2ccccc2)C(=O)N[C@@H]([C@@H](C)O)C(=O)N(C)CC(=O)N[C@@H](COC(C)(C)C)C(=O)N1C [DP-795] (cyclo([NMeF]T[Sar]S(tBu)[NMeL][NMeL][β3hA][NMeGABA])) | 143 | 19 | – | – | –
14 | CC(C)C[C@H]1C(=O)N(C)[C@@H](CC(C)C)C(=O)N[C@H](C(=O)N2CCCCC2)CC(=O)N(C)[C@@H](C)C(=O)N(C)[C@@H](Cc2ccccc2)C(=O)N(C)[C@@H](CC(C)C)C(=O)N[C@@H]([C@@H](C)O)C(=O)N1C [DP-679] ([NMeA][NMeF][NMeL]T[NMeL][NMeL]D-Piperidide; lactam N-7) | 342 | 25 | – | – | –
15 | CC(C)C[C@H]1C(=O)N[C@@H](C(C)C)C(=O)N(C)[C@@H](C)C(=O)N(C)[C@@H](C)C(=O)N[C@@H]([C@@H](C)O)C(=O)N(C)[C@@H](C)C(=O)N[C@H](C(=O)N(C)[C@@H](Cc2ccccc2)C(=O)N(C)[C@@H](Cc2ccccc2)C(=O)N[C@@H](C)C(=O)N2CCCCC2)CC(=O)N(C)[C@H](C)C(=O)N(C)[C@@H](Cc2ccccc2)C(=O)N1C [DP-400] ([dNMeA][NMeF][NMeL]V[NMeA][NMeA]T[NMeA]D[NMeF][NMeF]A-Piperidide; lactam N-9) | 24 | 15 | – | – | –
16 | CC[C@H](C)[C@H](NC(=O)[C@H](CC(C)C)N(C)C(=O)[C@@H](NC(=O)[C@H](Cc1ccccc1)N(C)C(=O)[C@@H]1CC(=O)N(C)CCC(=O)N(C)[C@@H](Cc2cccc(Cl)c2)C(=O)N[C@@H](CC(C)C)C(=O)N[C@@H]([C@@H](C)O)C(=O)N[C@@H](CC(C)C)C(=O)N[C@@H]([C@@H](C)CC)C(=O)N(C)[C@@H](CC(C)C)C(=O)N(C)[C@@H](CC(C)C)C(=O)N1)[C@@H](C)CC)C(=O)N1CCCCC1 [DP-941] ([NMeβAla][NMePhe(3-Cl)]LTLI[NMeL][NMeL]D[NMeF]I[NMeL]I-Piperidide; lactam N-9) | 49 | 0.1 | – | – | –
17 | CC[C@H](C)[C@@H]1NC(=O)[C@H](CC(C)C)N(C)C(=O)[C@H](Cc2ccccc2)N(C)C(=O)[C@H](Cc2ccccc2)NC(=O)[C@H](C)N(C)C(=O)[C@H](CC(C)C)N(C)C(=O)[C@@H](C(C)C)NC(=O)C[C@@H](C(=O)N(C)[C@@H](CC(C)C)C(=O)N[C@H](C(=O)N(C)[C@@H](C)C(=O)N[C@H](C(=O)N2CCCCC2)[C@@H](C)CC)C(C)C)NC(=O)[C@H](CC(C)C)NC(=O)[C@H]([C@@H](C)O)NC1=O [DP-947] ([dV][NMeL][NMeA]F[NMeF][NMeL]ITLD[NMeL]V[NMeA]I-Piperidide; lactam N-10) | 14 | 0.1 | – | – | –
18 | CC(C)C[C@H]1C(=O)N(C)[C@@H](Cc2ccccc2)C(=O)NCC(=O)N(C)[C@@H](Cc2ccccc2)C(=O)N(C)[C@@H](C)C(=O)N[C@@H]([C@@H](C)O)C(=O)N[C@H](C(=O)N(C)[C@@H](Cc2ccccc2)C(=O)N(C)[C@@H](Cc2ccccc2)C(=O)N[C@@H](C)C(=O)N2CCCCC2)CC(=O)N(C)CC(=O)N[C@@H](C(C)C)C(=O)N1C [DP-314] ([Sar]V[NMeL][NMeF]G[NMeF][NMeA]TD[NMeF][NMeF]A-Piperidide; lactam N-9) | 133 | 49 | – | – | –
